Legend:
[1] = tested on: antibodies in sera from SARS patients (sera 1a, 1b, 2, 6, 37, 62, London, SARS-yellow, SARS-green); format: binding, human; design: Binding of serum 6 to linear peptides of protein X1 of SARS-CoV Urbani / Binding of serum 37 to linear peptides of protein X1 of SARS-CoV Urbani / Binding of serum 6 to looped/cyclic peptide (PEPSCAN-ELISA) / Binding of serum 37 to looped/cyclic peptide (PEPSCAN-ELISA) / Binding of serum 37 to looped/cyclic peptides of protein X1 of SARS-CoV Urbani / Binding of serum 6 to linear peptides of protein X2 / Binding of serum 37 to linear peptides of protein X2 / Binding of serum 37 to looped/cyclic peptides of protein X2 of SARS-CoV Urbani / Binding of serum 6 to linear peptides of protein M of SARS-CoV Urbani / Binding of serum 37 to linear peptides of protein M of SARS-CoV Urbani / Binding of serum 6 to looped/cyclic peptides of protein M of SARS-CoV Urbani / Binding of serum 37 to looped/cyclic peptides of protein M of SARS-CoV Urbani / Binding of serum 6 to linear peptides of protein X3 of SARS-CoV Urbani / Binding of serum 37 to linear peptides of protein X3 of SARS-CoV Urbani / Binding of serum 37 to looped/cyclic peptides of protein X3 of SARS-CoV Urbani / Binding of serum 6 to linear peptides of protein X4 of SARS-CoV Urbani / Binding of serum 37 to linear peptides of protein X4 of SARS-CoV Urbani / Binding of serum 37 to looped/cyclic peptides of protein X4 of SARS-CoV Urbani / Binding of serum 6 to linear peptides of protein X5 of SARS-CoV Urbani / Binding of serum 37 to linear peptides of protein X5 of SARS-CoV Urbani / Binding of serum 37 to looped/cyclic peptides of protein X5 of SARS-CoV Urbani / Binding of serum 6 to linear peptides of protein N of SARS-CoV Urbani / Binding of serum 37 to linear peptides of protein N of SARS-CoV Urbani / Binding of serum 6 to linear peptide (PEPSCAN-ELISA) / Binding of serum 1a to looped/cyclic peptides of protein N of SARS-CoV Urbani / Binding of serum 1b to looped/cyclic peptides of protein N of SARS-CoV Urbani / Binding of serum 2 to looped/cyclic peptides of protein N of SARS-CoV Urbani / Binding of serum 6 to looped/cyclic peptides of protein N of SARS-CoV Urbani / Binding of serum 37 to looped/cyclic peptides of protein N of SARS-CoV Urbani / Binding of serum 62 to looped/cyclic peptides of protein N of SARS-CoV Urbani / Binding of serum London to looped/cyclic peptides of protein N of SARS-CoV Urbani / Binding of serum SARS-green to looped/cyclic peptides of protein N of SARS-CoV Urbani: unit not given here
[2] = tested on: control sera (pooled serum of ten healthy LUMC hospital workers; commercial negative donor pooled serum from the Dutch bloodbank); format: binding, human; design: Binding of Control serum LUMC to linear peptides / Binding of Control serum Blood-bank to linear peptides / Binding of Control serum LUMC to looped peptides / Binding of Control Serum Blood-Bank to Looped peptides / Binding of Control serum LUMC to linear peptides of the protein M of SARS-CoV Urbani / Binding of Control serum Blood-bank to linear peptides of the protein M of SARS-CoV Urbani / Binding of Control serum LUMC to looped peptides of the protein M of SARS-CoV Urbani / Binding of Control Serum Blood-Bank to Looped peptides of the protein M of SARS-CoV Urbani: unit not given here
[3] = tested on: rabbit serum obtained by immunizing a rabbit with the SARS-CoV strain Frankfurt 1; format: binding; design: Binding of a rabbit serum to linear peptides / Binding of a rabbit serum to looped peptides / Rabbit serum linear peptides / Rabbit serum looped peptides / Binding of a rabbit serum to linear peptides of protein N of SARS-CoV Urbani (Rabbit serum linear peptides) / Binding of a rabbit serum to looped/cyclic peptides of protein N of SARS-CoV Urbani (Rabbit serum looped peptides): unit not given here

TATIPLQASLPFGWL
Binding of serum 1a to linear peptides of protein X1 of SARS-CoV Urbani [1]: 0.9
Binding of serum 1a to looped/cyclic peptide (PEPSCAN-ELISA) [1]: 0.7
Binding of serum 1b to linear peptides of protein X1 of SARS-CoV Urbani [1]: 0.8
Binding of serum 1b to looped/cyclic peptide (PEPSCAN-ELISA) [1]: 0.6
Binding of serum 2 to linear peptides of protein X1 of SARS-CoV Urbani [1]: 0.6
Binding of serum 2 to looped/cyclic peptide (PEPSCAN-ELISA) [1]: 0.5
Binding of serum 6 to linear peptides of protein X1 of SARS-CoV Urbani [1]: 0.7
Binding of serum 6 to looped/cyclic peptide (PEPSCAN-ELISA) [1]: 0.5
Binding of serum 37 to linear peptides of protein X1 of SARS-CoV Urbani [1]: 0.7
Binding of serum 37 to looped/cyclic peptide (PEPSCAN-ELISA) [1]: 0.8
Binding of serum 62 to linear peptides of protein X1 of SARS-CoV Urbani [1]: 0.7
Binding of serum 62 to looped/cyclic peptide (PEPSCAN-ELISA) [1]: 0.8
Binding of serum London to linear peptides of protein X1 of SARS-CoV Urbani [1]: 0.3
Binding of serum London to looped/cyclic peptide (PEPSCAN-ELISA) [1]: 0.3
Binding of serum SARS-green to linear peptides of protein X1 of SARS-CoV Urbani [1]: 0.5
Binding of serum SARS-green to looped/cyclic peptide (PEPSCAN-ELISA) [1]: 0.5
Binding of serum SARS-yellow to linear peptides of protein X1 of SARS-CoV Urbani [1]: 0.3
Binding of serum SARS-yellow to looped/cyclic peptide (PEPSCAN-ELISA) [1]: 0.5
Binding of Control Serum Blood-Bank to Looped peptides [2]: 0.8
Binding of Control serum Blood-bank to linear peptides [2]: 1.0
Binding of Control serum LUMC to linear peptides [2]: 0.8
Binding of Control serum LUMC to looped peptides [2]: 0.8
Binding of a rabbit serum to linear peptides [3]: 0.1
Binding of a rabbit serum to looped peptides [3]: 0.6

TDTGIENATFFIFNK
Binding of serum 1a to linear peptides of protein X1 of SARS-CoV Urbani [1]: 0.7
Binding of serum 1a to looped/cyclic peptides of protein X1 of SARS-CoV Urbani [1]: 0.5
Binding of serum 1b to linear peptides of protein X1 of SARS-CoV Urbani [1]: 0.4
Binding of serum 1b to looped/cyclic peptides of protein X1 of SARS-CoV Urbani [1]: 0.5
Binding of serum 2 to linear peptides of protein X1 of SARS-CoV Urbani [1]: 0.5
Binding of serum 2 to looped/cyclic peptides of protein X1 of SARS-CoV Urbani [1]: 0.5
Binding of serum 6 to linear peptides of protein X1 of SARS-CoV Urbani [1]: 0.7
Binding of serum 6 to looped/cyclic peptides of protein X1 of SARS-CoV Urbani [1]: 0.5
Binding of serum 37 to linear peptides of protein X1 of SARS-CoV Urbani [1]: 0.6
Binding of serum 37 to looped/cyclic peptides of protein X1 of SARS-CoV Urbani [1]: 0.7
Binding of serum 62 to linear peptides of protein X1 of SARS-CoV Urbani [1]: 0.5
Binding of serum 62 to looped/cyclic peptides of protein X1 of SARS-CoV Urbani [1]: 0.7
Binding of serum London to linear peptides of protein X1 of SARS-CoV Urbani [1]: 0.3
Binding of serum London to looped/cyclic peptides of protein X1 of SARS-CoV Urbani [1]: 0.3
Binding of serum SARS-green to linear peptides of protein X1 of SARS-CoV Urbani [1]: 0.5
Binding of serum SARS-green to looped/cyclic peptides of protein X1 of SARS-CoV Urbani [1]: 0.4
Binding of serum SARS-yellow to linear peptides of protein X1 of SARS-CoV Urbani [1]: 0.0
Binding of serum SARS-yellow to looped/cyclic peptides of protein X1 of SARS-CoV Urbani [1]: 0.5
Binding of Control Serum Blood-Bank to Looped peptides [2]: 0.8
Binding of Control serum Blood-bank to linear peptides [2]: 0.6
Binding of Control serum LUMC to linear peptides [2]: 0.4
Binding of Control serum LUMC to looped peptides [2]: 0.6
Binding of a rabbit serum to linear peptides [3]: 0.1
Binding of a rabbit serum to looped peptides [3]: 0.6

TFRIAIWNLDVIISS
Binding of serum 1a to linear peptides of protein X3 of SARS-CoV Urbani [1]: 0.8
Binding of serum 1a to looped/cyclic peptides of protein X3 of SARS-CoV Urbani [1]: 0.7
Binding of serum 1b to linear peptides of protein X3 of SARS-CoV Urbani [1]: 0.5
Binding of serum 1b to looped/cyclic peptides of protein X3 of SARS-CoV Urbani [1]: 0.5
Binding of serum 2 to linear peptides of protein X3 of SARS-CoV Urbani [1]: 0.6
Binding of serum 2 to looped/cyclic peptides of protein X3 of SARS-CoV Urbani [1]: 0.6
Binding of serum 6 to linear peptides of protein X3 of SARS-CoV Urbani [1]: 0.5
Binding of serum 6 to looped/cyclic peptides of protein X3 of SARS-CoV Urbani [1]: 0.3
Binding of serum 37 to linear peptides of protein X3 of SARS-CoV Urbani [1]: 0.6
Binding of serum 37 to looped/cyclic peptides of protein X3 of SARS-CoV Urbani [1]: 0.6
Binding of serum 62 to linear peptides of protein X3 of SARS-CoV Urbani [1]: 0.7
Binding of serum 62 to looped/cyclic peptides of protein X3 of SARS-CoV Urbani [1]: 0.7
Binding of serum London to linear peptides of protein X3 of SARS-CoV Urbani [1]: 0.7
Binding of serum London to looped/cyclic peptides of protein X3 of SARS-CoV Urbani [1]: 0.2
Binding of serum SARS-green to linear peptides of protein X3 of SARS-CoV Urbani [1]: 0.4
Binding of serum SARS-green to looped/cyclic peptides of protein X3 of SARS-CoV Urbani [1]: 0.2
Binding of serum SARS-yellow to linear peptides of protein X3 of SARS-CoV Urbani [1]: 0.6
Binding of serum SARS-yellow to looped/cyclic peptides of protein X3 of SARS-CoV Urbani [1]: 0.5
Binding of Control Serum Blood-Bank to Looped peptides of the protein X3 of SARS-CoV Urbani [2]: 0.8
Binding of Control serum Blood-bank to linear peptides of the protein X3 of SARS-CoV Urbani [2]: 0.8
Binding of Control serum LUMC to linear peptides of the protein X3 of SARS-CoV Urbani [2]: 0.7
Binding of Control serum LUMC to looped peptides of the protein X3 of SARS-CoV Urbani [2]: 0.6
Rabbit serum linear peptides [3]: 0.3
Rabbit serum looped peptides [3]: 0.4

THFAFACADGTRHTY
Binding of serum 1a to linear peptides of protein X4 of SARS-CoV Urbani [1]: 0.7
Binding of serum 1a to looped/cyclic peptides of protein X4 of SARS-CoV Urbani [1]: 0.7
Binding of serum 1b to linear peptides of protein X4 of SARS-CoV Urbani [1]: 0.5
Binding of serum 1b to looped/cyclic peptides of protein X4 of SARS-CoV Urbani [1]: 0.5
Binding of serum 2 to linear peptides of protein X4 of SARS-CoV Urbani [1]: 0.5
Binding of serum 2 to looped/cyclic peptides of protein X4 of SARS-CoV Urbani [1]: 0.5
Binding of serum 6 to linear peptides of protein X4 of SARS-CoV Urbani [1]: 0.6
Binding of serum 6 to looped/cyclic peptides of protein X4 of SARS-CoV Urbani [1]: 0.5
Binding of serum 37 to linear peptides of protein X4 of SARS-CoV Urbani [1]: 0.6
Binding of serum 37 to looped/cyclic peptides of protein X4 of SARS-CoV Urbani [1]: 0.6
Binding of serum 62 to linear peptides of protein X4 of SARS-CoV Urbani [1]: 0.7
Binding of serum 62 to looped/cyclic peptides of protein X4 of SARS-CoV Urbani [1]: 0.6
Binding of serum London to linear peptides of protein X4 of SARS-CoV Urbani [1]: 0.7
Binding of serum London to looped/cyclic peptides of protein X4 of SARS-CoV Urbani [1]: 0.3
Binding of serum SARS-green to linear peptides of protein X4 of SARS-CoV Urbani [1]: 0.5
Binding of serum SARS-green to looped/cyclic peptides of protein X4 of SARS-CoV Urbani [1]: 0.4
Binding of serum SARS-yellow to linear peptides of protein X4 of SARS-CoV Urbani [1]: 0.2
Binding of serum SARS-yellow to looped/cyclic peptides of protein X4 of SARS-CoV Urbani [1]: 0.5
Binding of Control Serum Blood-Bank to Looped peptides [2]: 0.7
Binding of Control serum Blood-bank to linear peptides [2]: 0.7
Binding of Control serum LUMC to linear peptides [2]: 0.7
Binding of Control serum LUMC to looped peptides [2]: 0.7
Rabbit serum linear peptides [3]: 0.4
Rabbit serum looped peptides [3]: 0.5

THITMTTVYHITVSQ
Binding of serum 1a to linear peptides of protein X2 [1]: 0.6
Binding of serum 1a to looped/cyclic peptides of protein X2 of SARS-CoV Urbani [1]: 0.6
Binding of serum 1b to linear peptides of protein X2 [1]: 0.5
Binding of serum 1b to looped/cyclic peptides of protein X2 of SARS-CoV Urbani [1]: 0.6
Binding of serum 2 to linear peptides of protein X2 [1]: 0.4
Binding of serum 2 to looped/cyclic peptides of protein X2 of SARS-CoV Urbani [1]: 0.3
Binding of serum 6 to linear peptides of protein X2 [1]: 0.6
Binding of serum 6 to looped/cyclic peptides of protein X2 of SARS-CoV Urbani [1]: 0.2
Binding of serum 37 to linear peptides of protein X2 [1]: 0.7
Binding of serum 37 to looped/cyclic peptides of protein X2 of SARS-CoV Urbani [1]: 0.5
Binding of serum 62 to linear peptides of protein X2 [1]: 0.4
Binding of serum 62 to looped/cyclic peptides of protein X2 of SARS-CoV Urbani [1]: 0.6
Binding of serum London to linear peptides of protein X2 [1]: 0.4
Binding of serum London to looped/cyclic peptides of protein X2 of SARS-CoV Urbani [1]: 0.2
Binding of serum SARS-green to linear peptides of protein X2 [1]: 0.4
Binding of serum SARS-green to looped/cyclic peptides of protein X2 of SARS-CoV Urbani [1]: 0.3
Binding of serum SARS-yellow to linear peptides of protein X2 [1]: 0.5
Binding of serum SARS-yellow to looped/cyclic peptides of protein X2 of SARS-CoV Urbani [1]: 0.5
Binding of Control Serum Blood-Bank to Looped peptides [2]: 0.6
Binding of Control serum Blood-bank to linear peptides [2]: 0.3
Binding of Control serum LUMC to linear peptides [2]: 0.8
Binding of Control serum LUMC to looped peptides [2]: 0.7
Binding of a rabbit serum to linear peptides [3]: 0.7
Binding of a rabbit serum to looped peptides [3]: 0.4

From patent US20070128217A1 (priority 2003, published 2007)
